According to patent publication US6924297B2, “Naphathalene derivatives which bind to the EP4 receptor” (SmithKline Beecham Corporation, priority 2000, dated 2005):

biological target: T1, human EP4 receptor (Homo sapiens, UniProt P35408); test: Human EP4 Scintillation Proximity Assay (radioligand binding); details: membranes of CHO cells expressing human EP4 receptor; [3H]-prostaglandin E2 radioligand; pKi from IC50 by Cheng-Prusoff; read-out: pKI at EP4 receptors (converted)
T1 construct: expressed in transfected cells; host or cells: Chinese Hamster Ovary (CHO) cells infected with recombinant Semliki Forest Virus (SFV-1) particles; membranes prepared from these cells
Procedure: Quantification of radioligand binding by scintillation proximity assay (SPA) is a long-established principle. Briefly, the affinity of compounds for a receptor is assessed by the specific competition between known quantities of radiolabelled ligand and compound for that receptor. Increasing concentrations of compound reduce the amount of radiolabel that binds to the receptor. This gives rise to a diminishing scintillation signal from SPA beads coated with membranes that bear the receptor. The signal may be detected with a suitable scintillation counter and the data generated may be analysed with suitable curve-fitting software.
The human EP4 SPA assay (hereafter referred to as ‘the assay’) utilises membranes prepared from Chinese Hamster Ovary (CHO cells) infected with Semliki Forest Virus (SFV). Genetically engineered SFV-1 viral particles containing the genetic sequence of the human EP4 receptor were used to infect CHO cells resulting in expression of the receptor protein in cellular membranes. Cells washed free of media are homogenised in a pH-buffered medium containing peptidase inhibitors. A suitable buffer is of the following composition: 50 mM HEPES, 1 mM EDTA, 25 μg/ml bacitracin, 100 μM leupeptin, 1 mM PMSF, 2 μM Pepstatin A, pH adjusted to 7.4 with KOH. Following removal of cell debris by a low-speed centrifugation, a pellet of membranes is prepared by a high-speed (48000 g) centrifugation of the resulting supernatant. Membrane suspensions such as that described may be stored at −80° C. until used.
For assay, membranes expressing human EP4 receptors are diluted in a pH-buffered medium and mixed with SPA beads coated with a suitable substance to facilitate the adhesion of membranes to the beads. The concentrations of membrane protein and SPA beads chosen should result in SPA binding signal of at least 300 corrected counts per minute (CCPM) when tritiated radioligand at a concentration close to its Kd (affinity value) is combined with the mixture. Non-specific binding (nsb) may be determined by competition between the radiolabelled ligand and a saturating concentration of unlabelled ligand. In order to quantify the affinity of EP4 receptor ligands, compounds are diluted in a stepwise manner across the wells of a 96-well plate. Radioligand, compound, and unlabelled ligand are then added to a 96-well plate suitable for the measurement of SPA binding signals prior to the addition of bead/membrane mixture to initiate the binding reaction. Equilibrium may be achieved by incubation at room temperature for 120 minutes prior to scintillation counting. The data so generated may be analysed by means of a computerised curve-fitting routine in order to quantify the concentration of compound that displaces 50% of the specific radioligand binding (IC50). The affinity (pKi) of the compound may be calculated from the IC50 by application of the Cheng-Prusoff correction. Suitable reagents and protocols are: reaction buffer containing 50 mM HEPES, 10 mM MgCl2, pH adjusted to 7.4 with KOH; SPA beads coated with wheatgerm agglutinin; 1.25 nM [^3H]-prostaglandin E2 as radioligand; 10 μM prostaglandin E2 as unlabelled ligand; a three-fold dilution series of compound starting at 10 μM and ending at 0.3 nM is adequate.

T1 sequence (P35408 whole entry): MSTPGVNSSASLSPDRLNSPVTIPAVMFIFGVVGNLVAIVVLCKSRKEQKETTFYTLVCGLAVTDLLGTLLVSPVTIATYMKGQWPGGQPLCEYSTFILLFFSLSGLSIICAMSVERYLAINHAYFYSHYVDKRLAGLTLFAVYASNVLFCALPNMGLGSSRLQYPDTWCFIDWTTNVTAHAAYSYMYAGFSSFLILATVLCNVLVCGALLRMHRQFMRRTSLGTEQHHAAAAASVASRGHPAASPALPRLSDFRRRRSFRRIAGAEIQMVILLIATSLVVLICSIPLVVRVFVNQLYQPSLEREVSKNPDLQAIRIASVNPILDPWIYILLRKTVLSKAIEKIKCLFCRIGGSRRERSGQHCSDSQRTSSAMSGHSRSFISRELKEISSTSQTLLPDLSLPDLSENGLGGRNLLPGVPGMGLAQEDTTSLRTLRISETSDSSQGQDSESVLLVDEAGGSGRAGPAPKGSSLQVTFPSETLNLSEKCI

Ki, ≤ 100 nM:
CCOc1c2c(c(OCC)c3ccccc13)C(=O)N(c1ccc(CS(=O)(=O)NC(=O)Cc3ccc(OC(F)(F)F)cc3)cc1)C2 [Example 80]
CCOc1c2c(c(OCC)c3ccccc13)C(=O)N(c1ccc(CS(=O)(=O)NC(=O)Cc3ccccc3Cl)cc1)C2 [Example 29]
CCOc1c2c(c(OCC)c3ccccc13)C(=O)N(c1ccc(CS(=O)(=O)NC(=O)Cc3ccc(C)cc3)cc1)C2=O [Example 67, 1-[4-(4,9-diethoxy-1,3-dioxo-1,3-dihydro-2H-benzo[f]isoindol-2-yl)phenyl]-N-[(4-methylphenyl)acetyl]methanesulfonamide]
CCOc1c2c(c(OCC)c3ccccc13)C(=O)N(c1ccc(CS(=O)(=O)NC(=O)Cc3cccc(C)c3)cc1)C2 [Example 26]
CCOc1c2c(c(OCC)c3ccccc13)C(=O)N(c1ccc(CS(=O)(=O)NC(=O)Cc3ccccc3OC)cc1)C2 [Example 31, 1-[4-(4,9-diethoxy-1-oxo-1,3-dihydro-2H-benzo[f]isoindol-2-yl)phenyl]-N-[(2-methoxyphenyl)acetyl]methanesulfonamide]
CCOc1c2c(c(OCC)c3ccccc13)C(=O)N(c1ccc(CS(=O)(=O)NC(=O)Cc3cccc4occc34)cc1)C2 [Example 88]
CCOc1c2c(c(OCC)c3ccccc13)C(=O)N(c1ccc(CS(=O)(=O)NC(=O)C3(c4ccccc4)CC3)cc1)C2 [Example 50]
CCOc1c2c(c(OCC)c3ccccc13)C(=O)N(c1ccc(CS(=O)(=O)NC(=O)Cc3ccc4ccccc4c3)cc1)C2 [Example 48]
CCOc1c2c(c(OCC)c3ccccc13)C(=O)N(c1ccc(CS(=O)(=O)NC(=O)Cc3ccc4c(c3)OC(C)(C)O4)cc1)C2 [Example 85]
CCOc1c2c(c(OCC)c3ccccc13)C(=O)N(c1ccc(CS(=O)(=O)NC(=O)Cc3cccc(OC)c3)cc1)C2=O [Example 63]
CCOc1c2c(c(OCC)c3ccccc13)C(=O)N(c1ccc(CS(=O)(=O)NC(=O)Cc3ccc(-c4ccccc4)cc3)cc1)C2 [Example 30]
CCOc1c2c(c(OCC)c3ccccc13)C(=O)N(c1ccc(CS(=O)(=O)NC(=O)Cc3ccc4c(c3)OCO4)cc1)C2=O [Example 93]
CCOc1c2c(c(OCC)c3ccccc13)C(=O)N(c1ccc(CS(=O)(=O)NC(=O)Cc3cccc(OC(F)(F)F)c3)cc1)C2 [Example 81]
CCOc1c2c(c(OCC)c3ccccc13)C(=O)N(c1ccc(CS(=O)(=O)NC(=O)Cc3ccc(C)cc3)cc1)C2 [Example 20]
CCOc1c2c(c(OCC)c3ccccc13)C(=O)N(c1ccc(CS(=O)(=O)NC(=O)Cn3ccc4ccccc43)cc1)C2 [Example 87]
CCOc1c2c(c(OCC)c3ccccc13)C(=O)N(c1ccc(CS(=O)(=O)NC(=O)C(C)c3ccccc3)cc1)C2=O (stereo not drawn) [Example 68]
CCOc1c2c(c(OCC)c3ccccc13)C(=O)N(c1ccc(CS(=O)(=O)NC(=O)Cc3ccc(C)c(F)c3)cc1)C2=O [Example 74]
CCOc1c2c(c(OCC)c3ccccc13)C(=O)N(c1ccc(CS(=O)(=O)NC(=O)Cc3ccccc3C)cc1)C2 [Example 21]
CCOc1c2c(c(OCC)c3ccccc13)C(=O)N(c1ccc(CS(=O)(=O)NC(=O)Cc3cccc(OC)c3OC)cc1)C2 [Example 34, 1-[4-(4,9-diethoxy-1-oxo-1,3-dihydro-2H-benzo[f]isoindol-2-yl)phenyl]-N-[(2,3-dimethoxyphenyl)acetyl]methanesulfonamide]
CCOc1c2c(c(OCC)c3ccccc13)C(=O)N(c1ccc(CS(=O)(=O)NC(=O)Cc3ccccc3C)cc1)C2=O [Example 61]
CCOc1c2c(c(OCC)c3ccccc13)C(=O)N(c1ccc(CS(=O)(=O)NC(=O)C(C)(C)c3cccc(C)c3)cc1)C2=O [Example 73]
CCOc1c2c(c(OCC)c3ccccc13)C(=O)N(c1ccc(CS(=O)(=O)NC(=O)Cc3ccccc3OC)cc1)C2=O [Example 71, 1-[4-(4,9-diethoxy-1,3-dioxo-1,3-dihydro-2H-benzo[f]isoindol-2-yl)phenyl]-N-[(2-methoxyphenyl)acetyl]methanesulfonamide]
CCOc1c2c(c(OCC)c3ccccc13)C(=O)N(c1ccc(CS(=O)(=O)NC(=O)C(C)c3ccc(CC(C)C)cc3)cc1)C2 (stereo not drawn) [Example 40]
CCOc1c2c(c(OCC)c3ccccc13)C(=O)N(c1ccc(CS(=O)(=O)NC(=O)Cc3scnc3C)cc1)C2 [Example 60]
CCOc1c2c(c(OCC)c3ccccc13)C(=O)N(c1ccc(CS(=O)(=O)NC(=O)Cc3ccc(CC(C)C)cc3)cc1)C2 [Example 23]
CCOc1c2c(c(OCC)c3ccccc13)C(=O)N(c1ccc(CS(=O)(=O)NC(=O)Cc3cc(F)ccc3F)cc1)C2=O [Example 69]
CCOc1c2c(c(OCC)c3ccccc13)C(=O)N(c1ccc(CS(=O)(=O)NC(=O)Cc3cccc(F)c3)cc1)C2 [Example 25]
CCOc1c2c(c(OCC)c3ccccc13)C(=O)N(c1ccc(CS(=O)(=O)NC(=O)Cc3ccc(OC)c(OC)c3)cc1)C2 [Example 38, 1-[4-(4,9-diethoxy-1-oxo-1,3-dihydro-2H-benzo[f]isoindol-2-yl)phenyl]-N-[(3,4-dimethoxyphenyl)acetyl]methanesulfonamide]
CCOc1c2c(c(OCC)c3ccccc13)C(=O)N(c1ccc(CS(=O)(=O)NC(=O)Cc3ccccc3CC(=O)OC)cc1)C2 [Example 47]
CCOc1c2c(c(OCC)c3ccccc13)C(=O)N(c1ccc(CS(=O)(=O)NC(=O)Cc3ccc(OC)c(OC)c3)cc1)C2=O [Example 66, 1-[4-(4,9-diethoxy-1,3-dioxo-1,3-dihydro-2H-benzo[f]isoindol-2-yl)phenyl]-N-[(3,4-dimethoxyphenyl)acetyl]methanesulfonamide]
CCOc1c2c(c(OCC)c3ccccc13)C(=O)N(c1ccc(CS(=O)(=O)NC(=O)Cc3ccccc3)cc1)C2 [Example 18, 1-[4-(4,9-diethoxy-1-oxo-1,3-dihydro-2H-benzo[f]isoindol-2-yl)phenyl]-N-(phenylacetyl)methanesulfonamide]
CCOc1c2c(c(OCC)c3ccccc13)C(=O)N(c1ccc(CS(=O)(=O)NC(=O)C(C)(C)c3ccccc3)cc1)C2 [Example 22]
CCOc1c2c(c(OCC)c3ccccc13)C(=O)N(c1ccc(CS(=O)(=O)NC(=O)Cc3ccccc3)cc1)C2=O [Example 1, 1-[4-(4,9-diethoxy-1,3-dioxo-1,3-dihydro-2H-benzo[f]isoindol-2-yl)phenyl]-N-(phenylacetyl)methanesulfonamide]
CCOc1ccc(CC(=O)NS(=O)(=O)Cc2ccc(N3Cc4c(c(OCC)c5ccccc5c4OCC)C3=O)cc2)cc1OCC [Example 82]
CCOc1c2c(c(OCC)c3ccccc13)C(=O)N(c1ccc(CS(=O)(=O)NC(=O)Cc3ccc(C(C)C)cc3)cc1)C2 [Example 27]
CCOc1c2c(c(OCC)c3ccccc13)C(=O)N(c1ccc(CS(=O)(=O)NC(=O)C(C)c3ccc4cc(OC)ccc4c3)cc1)C2 (stereo not drawn) [Example 86]
CCOc1c2c(c(OCC)c3ccccc13)C(=O)N(c1ccc(CS(=O)(=O)NC(=O)Cc3ccsc3)cc1)C2 [Example 51]
CCOc1c2c(c(OCC)c3ccccc13)C(=O)N(c1ccc(CS(=O)(=O)NC(=O)Cc3cc(OC)cc(OC)c3)cc1)C2 [Example 83]
CCOc1c2c(c(OCC)c3ccccc13)C(=O)N(c1ccc(CS(=O)(=O)NC(=O)Cc3c(C)cccc3C)cc1)C2=O [Example 72]
CCOc1c2c(c(OCC)c3ccccc13)C(=O)N(c1ccc(CS(=O)(=O)NC(=O)Cc3cccc4ccccc34)cc1)C2=O [Example 76]
CCOc1c2c(c(OCC)c3ccccc13)C(=O)N(c1ccc(CS(=O)(=O)NC(=O)Cc3ccc4ccccc4c3)cc1)C2=O [Example 77]
CCOc1c2c(c(OCC)c3ccccc13)C(=O)N(c1ccc(CS(=O)(=O)NC(=O)Cc3ccc(Cl)cc3)cc1)C2=O [Example 70]
